The text below walks through data of patent US20220053796A1, “COMPOSITION FOR SUPPORTING ANIMAL WITH CANCER” (MARS, INCORPORATED, priority 2018, published 2022).

Common to all, as to format: cell-based, canine
One assay relates to CF41.Mg cell line. The experiment in a line: ATPlite proliferation assay. The conditions noted are these: Canis lupus familiaris, 72 h. The protocol: (§1) The different cancer cell lines were plated at the optimal number of cells per well in 90 μL of appropriate medium/well in flat-bottom microtitration 96-well plates. Plates were incubated at 37° C. for 24 hours before treatment in drug free culture medium. After a first dilution process, 10 μl of the test substances (single) were added on plate containing cells 24h after plating. Tumor cell lines were incubated for 72 h at 37° C. under 5% CO2 with 9 concentrations of each natural extract in 1:2 dilution steps. Top dose was 100 μg/ml for each plant extract and 1 μM for doxorubicin. Each concentration was tested in triplicates. Dilutions of each test substance as well as distribution to plates containing cells were performed manually. At least 2 independent experiments were performed for each plant extract. Control cells were treated with vehicles alone. […]
(§2) At the end of treatments, the cytotoxic activity of tested substances was evaluated by ATP-Lite assay (Ref. 6016949, Perkin-Elmer, and Batch 69-12172). […] This ATP level is quantified by the luminescence emitted by the firefly luciferase, through an ATP-dependent reaction. […] After, the plate was left for ten minutes in the dark and luminescence was measured as LV (Luminescence Value).

In another assay the test system is HMPOS. The experiment in a line: ATPlite proliferation assay. As to conditions: Canis lupus familiaris, 72 h. As for the experimental part:
as §1, §2
Chou-Tallalay CI corresponds to the combination indexes calculated using the appropriate algorithms. […]

Another assay relates to CMT-12 cancer cell line. Put plainly: MTT proliferation assay. The conditions noted are these: Canis lupus familiaris. As for the experimental part: (§3) Cells were plated at a density of 4×10^3 cells per well on 96-well tissue culture-treated flat bottom plates and incubated overnight in complete medium. Cells were treated the following day with DMSO control or extract using a twofold serial dilution for 8 final concentrations ranging from […] to 100 μg mL-1 for 48 h to assess all extracts for potential effectiveness at reducing cellular proliferation. To quantify cellular proliferation, MTT dye assays were performed by adding 30 μL of MTT dye (5 mg mL-1 in phosphate-buffered saline solution) to each well and incubating at 37° C. for 1 h. Media were then aspirated and the cells were solubilized in 200 μL of isopropanol. The optical density of each well was analyzed on a spectrophotometric plate reader (Epoch; Biotek, Winooski, Vt., USA) at a wavelength of 570 nm.
(§4) Synergy between extracts was examined using combinations of two extracts at six concentrations: 0.8, 1.7, 3.1, 6.3, 12.5, or 25 μg mL-1. The percent proliferating cells of control for each treatment was pooled from all experiments and is reported as mean f standard error of the mean.
(§5) Raw data from proliferation assays (optical density of each well) were normalized to the vehicle alone treatment for individual assays, considered to represent 100% proliferating cells (single or combined treatment). The % proliferating cells was then averaged across each replicate. The IC50 for each extract was then calculated across experiments by Probit analysis. The compound interactions were calculated by multiple drug effect analysis using CalcuSyn software (v.2.11; Biosoft, Cambridge, GB, United Kingdom).
A general note: Formazan colour is commonly taken as a measure of viable cells.

A further assay has as its system D17 cancer cell line. The experiment in a line: MTT proliferation assay. As to conditions: Canis lupus familiaris. The protocol: as §3, §4, §5
The next assay concerns C2 cancer cell line. The experiment in a line: MTT proliferation assay. The protocol:
as §3, §4, §5

The mark [1] stands for this setting: read-out: chemotherapy IC50 (mass concentration in brackets).

Where a name gives a salt, the structure may show the parent alone. Read-outs that look alike come from different tables or passages of the source.

For `COc1cccc2c1C(=O)c1c(O)c3c(c(O)c1C2=O)C[C@@](O)(C(=O)CO)C[C@@H]3O[C@H]1C[C@H](N)[C@H](O)[C@H](C)O1` [doxorubicin hydrochloride], the IC50 in the assay with CF41.Mg cell line was determined as 375 ± 361 nM; in the assay with HMPOS it was 11 nM; in the assay with CMT-12 cancer cell line (read-out: chemotherapy IC50), 300 nM; in the assay with CMT-12 cancer cell line (setting [1]), 0.163 µg/mL; with D17 cancer cell line (read-out: chemotherapy IC50), 500 nM; in the assay with D17 cancer cell line (setting [1]) it was 0.272 µg/mL.

For toceranib phosphate, in the assay with C2 cancer cell line, the “chemotherapy IC50 (mass concentration in brackets)” value is on record as “nM (6.2 ng mL^−1)”. The IC50 with C2 cancer cell line (read-out: chemotherapy IC50) was found to be 12.5 nM.
